Values belong to the compound of their own block, whether it stands above or below them.
Test system: NCI-H1341 complex spheroids, percent test/control
Assay: Anticancer human tumor NCI-H1341 cell line growth inhibition [AhR];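 also: spheroids exposed to agents for seven days before readout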
Details: for IC50: curve of first compound; for viability, T/C: stronger effect = lower value
In short: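 Complex tumor spheroids co-cultured with HUVEC and human MSC stroma; AhR antagonists tested in combination with standard-of-care and investigational agents. Top concentration at or near clinical Cmax (else 10 microM), half-log dilutions; growth expressed as percent test/control.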

[1] = second compound 0.1 µM, first compound 0.00949 µM
[2] = second compound 0.1 µM, first compound 0.03 µM
[3] = second compound 0.1 µM, first compound 0.0949 µM
[4] = second compound 0.1 µM, first compound 0.3 µM
[5] = second compound 0.316 µM, first compound 0.00949 µM
[6] = second compound 0.316 µM, first compound 0.03 µM
[7] = second compound 0.316 µM, first compound 0.0949 µM
[8] = second compound 0.316 µM, first compound 0.3 µM
[9] = second compound 1 µM, first compound 0.00949 µM
[10] = second compound 1 µM, first compound 0.03 µM
[11] = second compound 1 µM, first compound 0.0949 µM
[12] = second compound 1 µM, first compound 0.3 µM
[13] = second compound 3.16 µM, first compound 0.00949 µM
[14] = second compound 3.16 µM, first compound 0.03 µM
[15] = second compound 3.16 µM, first compound 0.0949 µM
[16] = second compound 3.16 µM, first compound 0.3 µM
[17] = second compound 10 µM, first compound 0.00949 µM
[18] = second compound 10 µM, first compound 0.03 µM
[19] = second compound 10 µM, first compound 0.0949 µM
[20] = second compound 10 µM, first compound 0.3 µM

- IC50 (second compound 0.1 µM): 98.1 nM
- IC50 (second compound 0.316 µM): 56.8 nM
- IC50 (second compound 1 µM): 81.1 nM
- IC50 (second compound 3.16 µM): 44.4 nM
- IC50 (second compound 10 µM): < 9.49 nM
SMILES: O=C(C=Cn1cnc(-c2cc(C(F)(F)F)cc(C(F)(F)F)c2)n1)NNc1cnccn1 + Cc1cncc(-c2nc(NCCc3c[nH]c4ccccc34)c3ncn(C(C)C)c3n2)c1
- viability, T/C [1]: 80.6%
- viability, T/C [2]: 77%
- viability, T/C [3]: 51.1%
- viability, T/C [4]: 14.5%
- viability, T/C (second compound 0.1 µM, first compound 0.949 µM): 7.39%
- viability, T/C (second compound 0.1 µM, first compound 3 µM): 6.28%
- viability, T/C [5]: 66.5%
- viability, T/C [6]: 65.7%
- viability, T/C [7]: 38%
- viability, T/C [8]: 13.4%
- viability, T/C (second compound 0.316 µM, first compound 0.949 µM): 7.92%
- viability, T/C (second compound 0.316 µM, first compound 3 µM): 4.63%
- viability, T/C [9]: 76.8%
- viability, T/C [10]: 78.5%
- viability, T/C [11]: 45.1%
- viability, T/C [12]: 12.7%
- viability, T/C (second compound 1 µM, first compound 0.949 µM): 7.39%
- viability, T/C (second compound 1 µM, first compound 3 µM): 4.92%
- viability, T/C [13]: 70.2%
- viability, T/C [14]: 60.4%
- viability, T/C [15]: 30.8%
- viability, T/C [16]: 13.6%
- viability, T/C (second compound 3.16 µM, first compound 0.949 µM): 7.86%
- viability, T/C (second compound 3.16 µM, first compound 3 µM): 4.46%
- viability, T/C [17]: 35.3%
- viability, T/C [18]: 34.8%
- viability, T/C [19]: 17.4%
- viability, T/C [20]: 9.23%
- viability, T/C (second compound 10 µM, first compound 0.949 µM): 5.77%
- viability, T/C (second compound 10 µM, first compound 3 µM): 3.55%

- IC50 (second compound 0.1 µM): 903 nM
- IC50 (second compound 0.316 µM): 791 nM
- IC50 (second compound 1 µM): 631 nM
- IC50 (second compound 3.16 µM): 461 nM
- IC50 (second compound 10 µM): < 31.6 nM
SMILES: COc1ccc([C@@H](O)c2cc(-c3ncnc4cc(N5CCOCC5)ccc34)c(F)cc2Cl)nn1 + Cc1ccccc1N=Nc1ccc(NC(=O)c2ccnn2C)c(C)c1
- viability, T/C (second compound 0.1 µM, first compound 0.0316 µM): 98.3%
- viability, T/C (second compound 0.1 µM, first compound 0.1 µM): 91.6%
- viability, T/C (second compound 0.1 µM, first compound 0.316 µM): 70.8%
- viability, T/C (second compound 0.1 µM, first compound 1 µM): 51.5%
- viability, T/C (second compound 0.1 µM, first compound 3.16 µM): 19.3%
- viability, T/C (second compound 0.1 µM, first compound 10 µM): 8.09%
- viability, T/C (second compound 0.316 µM, first compound 0.0316 µM): 87.2%
- viability, T/C (second compound 0.316 µM, first compound 0.1 µM): 68.9%
- viability, T/C (second compound 0.316 µM, first compound 0.316 µM): 70.6%
- viability, T/C (second compound 0.316 µM, first compound 1 µM): 46.4%
- viability, T/C (second compound 0.316 µM, first compound 3.16 µM): 19.9%
- viability, T/C (second compound 0.316 µM, first compound 10 µM): 8.42%
- viability, T/C (second compound 1 µM, first compound 0.0316 µM): 75.3%
- viability, T/C (second compound 1 µM, first compound 0.1 µM): 67.9%
- viability, T/C (second compound 1 µM, first compound 0.316 µM): 62.8%
- viability, T/C (second compound 1 µM, first compound 1 µM): 42%
- viability, T/C (second compound 1 µM, first compound 3.16 µM): 21.6%
- viability, T/C (second compound 1 µM, first compound 10 µM): 8.86%
- viability, T/C (second compound 3.16 µM, first compound 0.0316 µM): 73%
- viability, T/C (second compound 3.16 µM, first compound 0.1 µM): 59.9%
- viability, T/C (second compound 3.16 µM, first compound 0.316 µM): 58.7%
- viability, T/C (second compound 3.16 µM, first compound 1 µM): 38.5%
- viability, T/C (second compound 3.16 µM, first compound 3.16 µM): 18%
- viability, T/C (second compound 3.16 µM, first compound 10 µM): 5.82%
- viability, T/C (second compound 10 µM, first compound 0.0316 µM): 47.2%
- viability, T/C (second compound 10 µM, first compound 0.1 µM): 51.8%
- viability, T/C (second compound 10 µM, first compound 0.316 µM): 39.3%
- viability, T/C (second compound 10 µM, first compound 1 µM): 29.2%
- viability, T/C (second compound 10 µM, first compound 3.16 µM): 14.3%
- viability, T/C (second compound 10 µM, first compound 10 µM): 7.84%

- IC50 (second compound 0.1 µM): 13.1 nM
- IC50 (second compound 0.316 µM): 25.3 nM
- IC50 (second compound 1 µM): 17.2 nM
- IC50 (second compound 3.16 µM): 11.7 nM
- IC50 (second compound 10 µM): 9.79 nM
SMILES: CCc1c2c(nc3ccc(O)cc13)-c1cc3c(c(=O)n1C2)COC(=O)[C@]3(O)CC + Cc1ccccc1N=Nc1ccc(NC(=O)c2ccnn2C)c(C)c1
- viability, T/C (second compound 0.1 µM, first compound 0.000949 µM): 107%
- viability, T/C (second compound 0.1 µM, first compound 0.003 µM): 67.5%
- viability, T/C [1]: 53.4%
- viability, T/C [2]: 44.3%
- viability, T/C [3]: 37%
- viability, T/C [4]: 15.3%
- viability, T/C (second compound 0.316 µM, first compound 0.000949 µM): 92.9%
- viability, T/C (second compound 0.316 µM, first compound 0.003 µM): 84%
- viability, T/C [5]: 53.2%
- viability, T/C [6]: 49.5%
- viability, T/C [7]: 40.1%
- viability, T/C [8]: 16.5%
- viability, T/C (second compound 1 µM, first compound 0.000949 µM): 85.5%
- viability, T/C (second compound 1 µM, first compound 0.003 µM): 74.9%
- viability, T/C [9]: 50.3%
- viability, T/C [10]: 43.5%
- viability, T/C [11]: 35.5%
- viability, T/C [12]: 13.5%
- viability, T/C (second compound 3.16 µM, first compound 0.000949 µM): 75.7%
- viability, T/C (second compound 3.16 µM, first compound 0.003 µM): 58.2%
- viability, T/C [13]: 51%
- viability, T/C [14]: 43.5%
- viability, T/C [15]: 29.7%
- viability, T/C [16]: 12.1%
- viability, T/C (second compound 10 µM, first compound 0.000949 µM): 54.3%
- viability, T/C (second compound 10 µM, first compound 0.003 µM): 48.9%
- viability, T/C [17]: 48.4%
- viability, T/C [18]: 44.8%
- viability, T/C [19]: 22.6%
- viability, T/C [20]: 7.81%

From PubChem BioAssay AID1919014 (Molecular Pharmacology Branch, DTP, NCI, 2023)
